Results from patent US12371428B2 (Exelixis, Inc., priority 2019, dated 2025).
Like-named read-outs stand apart in the source and are kept apart here.

Key:
Assay type in all cases: cell-based
[1] = target: Met (phospho-Met, HGF-stimulated PC-3 prostate cancer cells) (Homo sapiens (Human), UniProt P08581); assay: Met autophosphorylation ELISA in PC-3 cells (Example F); conditions: cellular activity, read-out: c-Met IC50
Method in brief: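 Sandwich ELISA for phospho-Met (panTyr) in PC-3 lysates. Cells starved 3 h serum-free, compound 1 h (8-pt curve, 0.3% DMSO), HGF 100 ng/mL 10 min. 100% = HGF + DMSO; 0% = HGF + reference inhibitor. IC50 by 4-parameter fit.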

[2] = target: KDR (phospho-KDR, VEGF165-stimulated HUVEC cells) (Homo sapiens (Human), UniProt P35968); assay: KDR autophosphorylation ELISA in HUVEC cells (Example G); conditions: cellular activity
Method in brief: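 First, endothelial cells were cultured a day, then kept without serum for another day. Next came 1 h with serially diluted compound, a brief 5 min VEGF165 stimulus (100 ng/mL), rapid lysis, and ELISA detection of receptor phosphorylation relative to stimulated and non-stimulated controls.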

[3] = target: AXL (phospho-AXL, Gas6-stimulated A-172 glioblastoma cells) (Homo sapiens (Human), UniProt P30530); assay: AXL autophosphorylation ELISA in A-172 cells (Example E); conditions: cellular activity, read-out: Axl IC50
Description: A-172 cells were incubated at 37° C., 5% CO2 for 24 h and then starved for 24 h in serum-free medium. Test compounds were serially diluted to produce an 8-point dose curve in fresh serum-free medium to a final concentration of 0.3% DMSO (vehicle) and added to the cells and incubated for 1 h. […] Lysates were collected and 100 μL/well added into the human phospho-AXL DuoSet IC ELISA (R&D Systems #DYC2228-2). […] Positive control wells (100% activity) contained Gas6-stimulated, DMSO-treated cell lysates. Negative control wells (0% activity) contained Gas6-stimulated, reference inhibitor-treated cell lysates. IC50 values were calculated by nonlinear regression analysis using a 4-parameter logistic curve fit in ActivityBase XE (IDBS).

[4] = target: Mer (phospho-Mer, MERTK-transfected 293A cells) (Homo sapiens (Human), UniProt Q12866); assay: Mer autophosphorylation ELISA in transient transfected 293A cells (Example H); conditions: cellular activity
Method in brief: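 IC50 from 4-parameter logistic fit of phospho-Mer levels, quantified by ELISA against a phospho-Mer standard in lysates of MERTK-transfected 293A cells. Cells exposed 1 h to 8-point serial dilutions, serum-free, 0.3% DMSO; controls: DMSO (100%) and reference inhibitor (0%).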

[5] = Met autophosphorylation ELISA in PC-3 cells
[6] = KDR autophosphorylation ELISA in HUVEC cells
[7] = AXL autophosphorylation ELISA in A-172 cells
[8] = Mer autophosphorylation ELISA in transient transfected 293A cells

Chain of AXL (phospho-AXL, Gas6-stimulated A-172 glioblastoma cells) (P30530 26-894): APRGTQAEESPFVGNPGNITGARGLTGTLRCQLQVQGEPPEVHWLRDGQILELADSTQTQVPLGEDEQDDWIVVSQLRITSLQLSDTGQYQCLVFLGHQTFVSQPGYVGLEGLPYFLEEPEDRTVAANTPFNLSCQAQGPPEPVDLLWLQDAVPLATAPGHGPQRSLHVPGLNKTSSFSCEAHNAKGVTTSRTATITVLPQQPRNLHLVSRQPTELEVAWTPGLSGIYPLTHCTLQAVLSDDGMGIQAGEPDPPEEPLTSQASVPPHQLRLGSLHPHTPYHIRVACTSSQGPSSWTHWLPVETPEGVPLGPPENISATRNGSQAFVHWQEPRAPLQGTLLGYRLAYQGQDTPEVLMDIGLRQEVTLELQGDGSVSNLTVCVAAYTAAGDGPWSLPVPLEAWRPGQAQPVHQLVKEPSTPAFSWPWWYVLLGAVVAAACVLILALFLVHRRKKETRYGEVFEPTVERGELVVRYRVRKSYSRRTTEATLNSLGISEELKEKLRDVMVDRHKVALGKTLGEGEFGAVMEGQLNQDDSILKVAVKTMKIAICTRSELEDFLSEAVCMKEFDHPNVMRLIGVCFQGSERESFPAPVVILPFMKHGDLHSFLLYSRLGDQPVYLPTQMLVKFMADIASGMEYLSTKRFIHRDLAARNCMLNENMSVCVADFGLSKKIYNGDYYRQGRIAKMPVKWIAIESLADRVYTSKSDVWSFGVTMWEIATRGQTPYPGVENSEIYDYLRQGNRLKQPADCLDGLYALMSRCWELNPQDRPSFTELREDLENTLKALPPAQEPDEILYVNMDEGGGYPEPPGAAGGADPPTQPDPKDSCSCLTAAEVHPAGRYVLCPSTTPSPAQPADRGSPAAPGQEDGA
Chain of Met (phospho-Met, HGF-stimulated PC-3 prostate cancer cells) (P08581 25-1390): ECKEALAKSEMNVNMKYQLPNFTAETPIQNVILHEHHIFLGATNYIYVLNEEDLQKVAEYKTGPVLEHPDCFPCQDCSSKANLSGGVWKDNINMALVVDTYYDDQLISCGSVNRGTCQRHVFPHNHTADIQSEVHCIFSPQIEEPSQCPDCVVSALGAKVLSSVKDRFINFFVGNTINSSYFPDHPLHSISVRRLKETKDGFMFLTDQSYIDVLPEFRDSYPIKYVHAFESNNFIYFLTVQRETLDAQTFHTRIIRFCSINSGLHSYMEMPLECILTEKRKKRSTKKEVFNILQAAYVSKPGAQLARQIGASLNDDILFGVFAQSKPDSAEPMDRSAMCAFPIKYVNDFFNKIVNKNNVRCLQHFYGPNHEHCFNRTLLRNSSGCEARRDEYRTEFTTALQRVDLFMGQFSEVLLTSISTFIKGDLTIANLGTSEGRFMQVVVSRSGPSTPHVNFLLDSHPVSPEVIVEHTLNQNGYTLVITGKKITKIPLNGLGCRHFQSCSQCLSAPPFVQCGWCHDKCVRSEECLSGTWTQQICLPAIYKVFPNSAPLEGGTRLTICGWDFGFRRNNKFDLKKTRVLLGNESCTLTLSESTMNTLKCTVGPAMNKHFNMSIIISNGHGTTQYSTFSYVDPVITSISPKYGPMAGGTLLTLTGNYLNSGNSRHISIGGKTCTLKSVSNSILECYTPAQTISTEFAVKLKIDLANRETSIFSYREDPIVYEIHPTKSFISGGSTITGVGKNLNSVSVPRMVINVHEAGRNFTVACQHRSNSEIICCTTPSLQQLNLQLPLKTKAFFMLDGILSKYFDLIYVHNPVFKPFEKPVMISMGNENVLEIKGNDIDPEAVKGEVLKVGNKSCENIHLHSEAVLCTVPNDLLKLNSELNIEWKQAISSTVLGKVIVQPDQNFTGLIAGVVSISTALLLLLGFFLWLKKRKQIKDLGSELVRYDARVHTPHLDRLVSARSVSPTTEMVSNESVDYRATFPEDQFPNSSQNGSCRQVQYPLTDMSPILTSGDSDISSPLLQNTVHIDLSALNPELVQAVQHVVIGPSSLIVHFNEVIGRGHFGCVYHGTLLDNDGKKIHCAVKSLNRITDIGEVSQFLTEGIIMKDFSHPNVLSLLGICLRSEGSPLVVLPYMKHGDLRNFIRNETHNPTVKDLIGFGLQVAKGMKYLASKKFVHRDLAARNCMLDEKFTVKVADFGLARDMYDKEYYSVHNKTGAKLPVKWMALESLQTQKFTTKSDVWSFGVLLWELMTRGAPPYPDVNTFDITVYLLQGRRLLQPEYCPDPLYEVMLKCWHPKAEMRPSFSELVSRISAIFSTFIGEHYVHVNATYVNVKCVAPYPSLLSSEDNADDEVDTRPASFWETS
Chain of Mer (phospho-Mer, MERTK-transfected 293A cells) (Q12866 21-999): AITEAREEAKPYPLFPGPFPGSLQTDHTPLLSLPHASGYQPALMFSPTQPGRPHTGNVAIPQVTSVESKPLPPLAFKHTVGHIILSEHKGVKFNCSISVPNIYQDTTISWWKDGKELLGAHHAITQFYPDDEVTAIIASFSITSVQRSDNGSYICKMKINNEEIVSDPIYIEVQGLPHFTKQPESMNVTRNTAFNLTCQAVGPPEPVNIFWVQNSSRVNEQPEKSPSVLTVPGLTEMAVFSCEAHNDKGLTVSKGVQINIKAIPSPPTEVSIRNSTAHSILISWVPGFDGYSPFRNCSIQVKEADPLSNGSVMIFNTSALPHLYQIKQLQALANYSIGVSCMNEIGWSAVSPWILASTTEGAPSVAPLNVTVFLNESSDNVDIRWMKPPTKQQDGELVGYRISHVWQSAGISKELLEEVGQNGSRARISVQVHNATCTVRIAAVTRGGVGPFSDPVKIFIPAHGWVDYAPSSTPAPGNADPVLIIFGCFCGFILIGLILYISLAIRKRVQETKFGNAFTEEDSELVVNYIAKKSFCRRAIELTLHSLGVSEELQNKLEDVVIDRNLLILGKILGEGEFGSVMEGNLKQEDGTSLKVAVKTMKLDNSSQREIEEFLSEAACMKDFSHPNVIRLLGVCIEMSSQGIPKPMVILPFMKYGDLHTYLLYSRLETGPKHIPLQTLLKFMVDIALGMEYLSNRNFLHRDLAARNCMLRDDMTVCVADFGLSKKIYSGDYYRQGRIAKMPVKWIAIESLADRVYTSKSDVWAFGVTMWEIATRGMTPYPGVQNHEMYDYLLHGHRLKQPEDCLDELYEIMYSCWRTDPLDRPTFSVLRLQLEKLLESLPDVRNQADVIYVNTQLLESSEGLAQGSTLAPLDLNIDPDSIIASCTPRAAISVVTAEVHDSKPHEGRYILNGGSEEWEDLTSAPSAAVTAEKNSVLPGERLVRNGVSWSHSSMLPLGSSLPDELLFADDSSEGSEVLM
Chain of KDR (phospho-KDR, VEGF165-stimulated HUVEC cells) (P35968 20-1356): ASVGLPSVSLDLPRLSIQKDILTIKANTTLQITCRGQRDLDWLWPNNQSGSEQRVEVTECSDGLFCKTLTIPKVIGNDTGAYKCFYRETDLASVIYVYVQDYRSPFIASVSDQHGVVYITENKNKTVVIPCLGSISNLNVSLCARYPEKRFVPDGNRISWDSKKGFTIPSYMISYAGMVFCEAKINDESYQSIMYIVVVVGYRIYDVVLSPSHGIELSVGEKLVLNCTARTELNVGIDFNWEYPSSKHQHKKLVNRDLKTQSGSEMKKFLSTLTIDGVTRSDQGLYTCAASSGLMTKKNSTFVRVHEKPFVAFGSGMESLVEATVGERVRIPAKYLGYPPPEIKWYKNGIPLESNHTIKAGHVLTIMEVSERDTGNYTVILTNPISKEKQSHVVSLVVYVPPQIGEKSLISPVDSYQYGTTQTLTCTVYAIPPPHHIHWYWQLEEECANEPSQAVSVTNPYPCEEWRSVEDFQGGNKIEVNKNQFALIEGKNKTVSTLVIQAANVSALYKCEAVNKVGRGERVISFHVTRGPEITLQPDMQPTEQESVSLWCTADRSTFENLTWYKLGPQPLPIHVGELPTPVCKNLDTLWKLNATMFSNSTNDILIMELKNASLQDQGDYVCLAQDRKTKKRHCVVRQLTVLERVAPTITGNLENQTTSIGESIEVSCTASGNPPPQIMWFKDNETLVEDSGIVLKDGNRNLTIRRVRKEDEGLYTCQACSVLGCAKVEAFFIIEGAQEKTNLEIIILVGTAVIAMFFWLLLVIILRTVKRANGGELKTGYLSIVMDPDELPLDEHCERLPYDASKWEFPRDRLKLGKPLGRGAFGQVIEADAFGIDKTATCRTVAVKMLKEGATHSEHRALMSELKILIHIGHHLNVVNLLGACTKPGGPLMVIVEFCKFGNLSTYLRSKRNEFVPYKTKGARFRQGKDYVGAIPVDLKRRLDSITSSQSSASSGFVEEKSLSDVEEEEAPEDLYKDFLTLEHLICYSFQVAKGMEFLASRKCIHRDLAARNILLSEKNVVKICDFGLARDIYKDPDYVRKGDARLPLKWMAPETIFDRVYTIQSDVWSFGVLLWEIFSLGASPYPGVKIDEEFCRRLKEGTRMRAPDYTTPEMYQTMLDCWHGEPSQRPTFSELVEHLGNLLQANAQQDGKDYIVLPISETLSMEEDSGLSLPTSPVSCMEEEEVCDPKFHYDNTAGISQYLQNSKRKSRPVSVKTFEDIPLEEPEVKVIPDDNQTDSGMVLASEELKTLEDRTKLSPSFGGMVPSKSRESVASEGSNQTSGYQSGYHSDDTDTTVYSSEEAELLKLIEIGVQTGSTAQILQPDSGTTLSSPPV

SMILES | IC50 [1, 5] | IC50 [2, 6] | IC50 [3, 7] | IC50 [4, 8] | IC50 ([1]; PC-3 cells) | IC50 ([2]; HUVEC cells) | IC50 ([3]; A-172 cells) | IC50 ([4]; transfected 293A cells)
COc1cc2nccc(Oc3ccc(NC(=O)c4c(C)c(C#N)c(C)n(-c5ccc(F)cc5)c4=O)cc3)c2nc1OC [Compound 320, 5-Cyano-N-[4-[(6,7-dimethoxy-1,5-naphthyridin-4-yl)oxy]phenyl]-1-(4-fluorophenyl)-4,6-dimethyl-2-oxopyridine-3-carboxamide] | < 100 nM | > 300 nM | < 100 nM | < 100 nM |  |  |  | 
COc1cc2nccc(Oc3ccc(NC(=O)c4cn(C)c(C)c(-c5ccc(F)cc5)c4=O)cc3C)c2nc1OC [Compound 763, N-[4-[(6,7-dimethoxy-1,5-naphthyridin-4-yl)oxy]-3-methylphenyl]-5-(4-fluorophenyl)-1,6-dimethyl-4-oxopyridine-3-carboxamide] | < 100 nM | < 100 nM | < 100 nM | < 100 nM |  |  |  | 
COc1cnc2c(Oc3ccc(NC(=O)c4c(C)nc(C)c(-c5ccc(F)c(F)c5)c4O)cc3F)ccnc2c1 [Compound 687, 5-(3,4-difluorophenyl)-N-[3-fluoro-4-[(7-methoxy-1,5-naphthyridin-4-yl)oxy]phenyl]-4-hydroxy-2,6-dimethylpyridine-3-carboxamide] | < 100 nM | < 100 nM | < 100 nM | < 100 nM |  |  |  | 
COc1cc2nccc(Oc3cc(F)c(NC(=O)c4c(C)n(C)c(C)c(-c5ccc(F)cc5C)c4=O)cc3F)c2nc1OC [Compound 772, N-[4-[(6,7-dimethoxy-1,5-naphthyridin-4-yl)oxy]-2,5-difluorophenyl]-5-(4-fluoro-2-methylphenyl)-1,2,6-trimethyl-4-oxopyridine-3-carboxamide] | < 100 nM | 100 to 300 nM | < 100 nM | < 100 nM |  |  |  | 
COc1cnc2c(Oc3ccc(NC(=O)c4c(C)c(C)nn(-c5ccc(F)cc5)c4=O)cc3F)ccnc2c1 [Compound 734, N-[3-fluoro-4-[(7-methoxy-1,5-naphthyridin-4-yl)oxy]phenyl]-2-(4-fluorophenyl)-5,6-dimethyl-3-oxopyridazine-4-carboxamide] | < 100 nM | > 300 nM | 100 to 300 nM | < 100 nM |  |  |  | 
CNc1c(C(=O)Nc2ccc(Oc3ccnc4cc(OC)c(OC)nc34)c(F)c2)c(=O)c(-c2ccc(F)cc2)c(C)n1C [Compound 649, N-[4-[(6,7-dimethoxy-1,5-naphthyridin-4-yl)oxy]-3-fluorophenyl]-5-(4-fluorophenyl)-1,6-dimethyl-2-(methylamino)-4-oxopyridine-3-carboxamide] | < 100 nM | > 300 nM | 100 to 300 nM | < 100 nM |  |  |  | 
COCCOc1cnc2c(Oc3ccc(NC(=O)c4cc(C(C)=O)c(C)n(-c5ccc(F)cc5)c4=O)cc3F)ccnc2c1 [Compound 758, 5-acetyl-N-[3-fluoro-4-[[7-(2-methoxyethoxy)-1,5-naphthyridin-4-yl]oxy]phenyl]-1-(4-fluorophenyl)-6-methyl-2-oxopyridine-3-carboxamide] | < 100 nM | > 300 nM | < 100 nM | < 100 nM |  |  |  | 
COc1cc2nccc(Oc3ccc(NC(=O)c4cn5c(c(-c6ccc(F)cc6)c4=O)CCC5)cc3F)c2nc1OC [Compound 362, N-[4-[(6,7-dimethoxy-1,5-naphthyridin-4-yl)oxy]-3-fluorophenyl]-8-(4-fluorophenyl)-7-oxo-2,3-dihydro-1H-indolizine-6-carboxamide] | < 100 nM | < 100 nM | < 100 nM | < 100 nM |  |  |  | 
COc1ccc(-c2c(C)ncc(C(=O)Nc3ccc(Oc4ccnc5cc(OC)cnc45)c(F)c3)c2O)c(OC)c1 [Compound 696, 5-(2,4-dimethoxyphenyl)-N-[3-fluoro-4-[(7-methoxy-1,5-naphthyridin-4-yl)oxy]phenyl]-4-hydroxy-6-methylpyridine-3-carboxamide] | 100 to 300 nM | < 100 nM | > 300 nM | < 100 nM |  |  |  | 
COc1cnc2c(Oc3ccc(NC(=O)c4cnc(C)c(-c5ccc(OC)c(C)c5)c4O)cc3F)ccnc2c1 [Compound 699, N-[3-fluoro-4-[(7-methoxy-1,5-naphthyridin-4-yl)oxy]phenyl]-4-hydroxy-5-(4-methoxy-3-methylphenyl)-6-methylpyridine-3-carboxamide] | 100 to 300 nM | < 100 nM | > 300 nM | < 100 nM |  |  |  | 
COc1cc2nccc(Oc3ccc(NC(=O)c4c(C)n(CC(F)F)cc(-c5ccc(F)c(C)c5)c4=O)cc3F)c2nc1OC [Compound 812, 1-(2,2-difluoroethyl)-N-[4-[(6,7-dimethoxy-1,5-naphthyridin-4-yl)oxy]-3-fluorophenyl]-5-(4-fluoro-3-methylphenyl)-2-methyl-4-oxopyridine-3-carboxamide] |  |  |  |  | < 100 nM | > 300 nM | < 100 nM | < 100 nM
COc1cc2nccc(Oc3ccc(NC(=O)c4cn(C5(C)COC5)cc(-c5ccc(F)cc5)c4=O)cc3F)c2cc1OC [Compound 55, N-[4-(6,7-Dimethoxyquinolin-4-yl)oxy-3-fluorophenyl]-5-(4-fluorophenyl)-1-(3-methyloxetan-3-yl)-4-oxopyridine-3-carboxamide] | < 100 nM | > 300 nM | < 100 nM | < 100 nM |  |  |  | 
COc1cnc2c(Oc3ccc(NC(=O)c4c(C)ccn(-c5ccc(F)cc5C)c4=O)cc3F)ccnc2c1 [Compound 334, N-[3-fluoro-4-[(7-methoxy-1,5-naphthyridin-4-yl)oxy]phenyl]-1-(4-fluoro-2-methylphenyl)-4-methyl-2-oxopyridine-3-carboxamide] | < 100 nM | < 100 nM | 100 to 300 nM | < 100 nM |  |  |  | 
COc1cc2nccc(Oc3ccc(NC(=O)c4n[nH]c(C)c(-c5ccc(F)cc5)c4=O)cc3)c2nc1OC [Compound 253, N-[4-[(6,7-Dimethoxy-1,5-naphthyridin-4-yl)oxy]phenyl]-5-(4-fluorophenyl)-6-methyl-4-oxo-1H-pyridazine-3-carboxamide] | < 100 nM | < 100 nM | < 100 nM | < 100 nM |  |  |  | 
C=C(C)c1cnc2c(Oc3ccc(NC(=O)c4c(C)ncc(-c5ccc(F)cc5C)c4O)cc3F)ccnc2c1 [Compound 474, 5-(4-fluoro-2-methylphenyl)-N-[3-fluoro-4-[(7-prop-1-en-2-yl-1,5-naphthyridin-4-yl)oxy]phenyl]-4-hydroxy-2-methylpyridine-3-carboxamide] | < 100 nM | < 100 nM | < 100 nM | < 100 nM |  |  |  | 
COc1cc2nccc(Oc3ccc(NC(=O)c4cn(C5(C)COC5)cc(-c5ccc(F)cc5)c4=O)cc3F)c2nc1OC [Compound 54, N-[4-[(6,7-Dimethoxy-1,5-naphthyridin-4-yl)oxy]-3-fluorophenyl]-5-(4-fluorophenyl)-1-(3-methyloxetan-3-yl)-4-oxopyridine-3-carboxamide] | < 100 nM | > 300 nM | < 100 nM | < 100 nM |  |  |  | 
C=C(C)c1cnc2c(Oc3ccc(NC(=O)c4cnc(C)n(-c5ccc(F)cc5)c4=O)cc3)ccnc2c1 [Compound 462, 1-(4-fluorophenyl)-2-methyl-6-oxo-N-[4-[(7-prop-1-en-2-yl-1,5-naphthyridin-4-yl)oxy]phenyl]pyrimidine-5-carboxamide] | < 100 nM | < 100 nM | < 100 nM | < 100 nM |  |  |  | 
COc1cc(F)ccc1-c1cnc(C)c(C(=O)Nc2ccc(Oc3ccnc4cc(OC)c(OC)nc34)c(F)c2)c1O [Compound 792, N-[4-[(6,7-dimethoxy-1,5-naphthyridin-4-yl)oxy]-3-fluorophenyl]-5-(4-fluoro-2-methoxyphenyl)-4-hydroxy-2-methylpyridine-3-carboxamide] | < 100 nM | < 100 nM | < 100 nM | < 100 nM |  |  |  | 
COc1cnc2c(Oc3ccc(NC(=O)c4cnc(C)c(-c5ccc(F)c(OC)c5)c4O)cc3F)ccnc2c1 [Compound 670, N-[3-fluoro-4-[(7-methoxy-1,5-naphthyridin-4-yl)oxy]phenyl]-5-(4-fluoro-3-methoxyphenyl)-4-hydroxy-6-methylpyridine-3-carboxamide] | < 100 nM | < 100 nM | < 100 nM | < 100 nM |  |  |  | 
